Experimental data taken from ChEMBL document CHEMBL2375249, “Synthesis and biological evaluation of novel pyrrolidine-2,5-dione derivatives as potential antidepressant agents. Part 1” (Eur J Med Chem, 2013).
Calls of active or inactive are those of the source. No cut-off for these calls is given here.

What was measured:
[1] = molecular target: T1, 5-hydroxytryptamine receptor 1A (Rattus norvegicus, UniProt P19327); experiment: Displacement of [3H]-8-OH-DPAT from 5HT1A receptor in rat hippocampal membranes after 20 mins; format: cell membranes, Hippocampus, Membrane
T1 sequence (P19327 whole entry): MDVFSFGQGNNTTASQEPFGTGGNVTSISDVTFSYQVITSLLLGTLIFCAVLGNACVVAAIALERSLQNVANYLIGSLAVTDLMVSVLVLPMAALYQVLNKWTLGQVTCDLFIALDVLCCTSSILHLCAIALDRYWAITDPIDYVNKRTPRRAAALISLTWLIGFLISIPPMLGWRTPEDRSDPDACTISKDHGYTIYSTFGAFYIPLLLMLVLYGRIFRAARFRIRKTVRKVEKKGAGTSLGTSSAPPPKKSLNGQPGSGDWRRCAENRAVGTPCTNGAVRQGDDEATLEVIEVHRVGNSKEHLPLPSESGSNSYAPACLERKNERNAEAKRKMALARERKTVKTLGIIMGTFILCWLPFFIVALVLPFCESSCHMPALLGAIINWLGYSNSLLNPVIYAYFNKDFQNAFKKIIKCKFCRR

[2] = molecular target: Sodium-dependent serotonin transporter (Rattus norvegicus, UniProt P31652); experiment: Displacement of [3H]-citalopram from SERT in rat cerebral cortex after 1 hr by liquid scintillation counting analysis; format: tissue-based
D(2) dopamine receptor = D(2) dopamine receptor (Homo sapiens, UniProt P14416); experiment: Displacement of [3H]-raclopride from human dopamine D2L receptor expressed in HEK293 cells after 1 hr; format: cell-based
[3] = molecular target: 5-hydroxytryptamine receptor 6 (Homo sapiens, UniProt P50406); experiment: Displacement of [3H]-LSD from human 5HT6 receptor expressed in HEK293 cells after 1 hr; format: cell-based
[4] = molecular target: 5-hydroxytryptamine receptor 7 (Homo sapiens, UniProt P34969); experiment: Displacement of [3H]-5CT from human 5HT7 receptor expressed in HEK293 cells after 1 hr; format: cell-based
[5] = molecular target: 5-hydroxytryptamine receptor 2A (Rattus norvegicus, UniProt P14842); experiment: Displacement of [3H]-ketanserin from 5HT2A in rat cerebral cortex 20 mins by liquid scintillation counting analysis; format: tissue-based
Mus musculus [6] = experiment: Induction of hypothermia in CD1 mouse assessed as change in rectal body temperature at 5 mg/kg, ip administered 30 mins prior to test measured after 60 mins in presence of WAY 100635 relative to control; format: functional, organism-based; design: dose 5 mg/kg
Mus musculus [7] = experiment: Induction of hypothermia in CD1 mouse assessed as change in rectal body temperature at 5 mg/kg, ip administered 30 mins prior to test measured after 60 mins relative to control; format: functional, organism-based; design: dose 5 mg/kg
Mus musculus [8] = experiment: Induction of hypothermia in CD1 mouse assessed as change in rectal body temperature at 2.5 mg/kg, ip administered 30 mins prior to test measured after 60 mins relative to control; format: functional, organism-based; design: dose 2.5 mg/kg
Mus musculus [9] = experiment: Induction of hypothermia in CD1 mouse assessed as change in rectal body temperature at 5 mg/kg, ip administered 30 mins prior to test measured after 30 mins in presence of WAY 100635 relative to control; format: functional, organism-based; design: dose 5 mg/kg
Mus musculus [10] = experiment: Induction of hypothermia in CD1 mouse assessed as change in rectal body temperature at 5 mg/kg, ip administered 30 mins prior to test measured after 90 mins relative to control; format: functional, organism-based; design: dose 5 mg/kg
Mus musculus [11] = experiment: Induction of hypothermia in CD1 mouse assessed as change in rectal body temperature at 2.5 mg/kg, ip administered 30 mins prior to test measured after 120 mins relative to control; format: functional, organism-based; design: dose 2.5 mg/kg
Mus musculus [12] = experiment: Antidepressant activity in CD1 mouse assessed as reduction in immobility time at 2.5 to 5 mg/kg, ip measured during final 4 mins in 6 mins test session after 2 mins habituation period by forced swimming test; format: functional, organism-based
Mus musculus [13] = experiment: Induction of hypothermia in CD1 mouse assessed as change in rectal body temperature at 5 mg/kg, ip administered 30 mins prior to test measured after 120 mins relative to control; format: functional, organism-based; design: dose 5 mg/kg
Mus musculus [14] = experiment: Induction of hypothermia in CD1 mouse assessed as change in rectal body temperature at 2.5 mg/kg, ip administered 30 mins prior to test measured after 30 mins relative to control; format: functional, organism-based; design: dose 2.5 mg/kg
Mus musculus [15] = experiment: Induction of hypothermia in CD1 mouse assessed as change in rectal body temperature at 2.5 mg/kg, ip administered 30 mins prior to test measured after 90 mins relative to control; format: functional, organism-based; design: dose 2.5 mg/kg
Mus musculus [16] = experiment: Induction of hypothermia in CD1 mouse assessed as change in rectal body temperature at 5 mg/kg, ip administered 30 mins prior to test measured after 30 mins relative to control; format: functional, organism-based; design: dose 5 mg/kg
Mus musculus [17] = experiment: Antidepressant activity in CD1 mouse assessed as reduction in immobility time at 1 to 2 mg/kg, sc measured during final 4 mins in 6 mins test session after 2 mins habituation period by forced swimming test; format: functional, organism-based
Mus musculus [18] = experiment: Induction of hypothermia in CD1 mouse assessed as change in rectal body temperature at 2.5 mg/kg, ip administered 30 mins prior to test measured after 30 mins in presence of WAY 100635 relative to control; format: functional, organism-based; design: dose 2.5 mg/kg
Mus musculus [19] = experiment: Induction of hypothermia in CD1 mouse assessed as change in rectal body temperature at 2.5 mg/kg, ip administered 30 mins prior to test measured after 60 mins in presence of WAY 100635 relative to control; format: functional, organism-based; design: dose 2.5 mg/kg

Sequence of 5-hydroxytryptamine receptor 2A (P14842 whole entry): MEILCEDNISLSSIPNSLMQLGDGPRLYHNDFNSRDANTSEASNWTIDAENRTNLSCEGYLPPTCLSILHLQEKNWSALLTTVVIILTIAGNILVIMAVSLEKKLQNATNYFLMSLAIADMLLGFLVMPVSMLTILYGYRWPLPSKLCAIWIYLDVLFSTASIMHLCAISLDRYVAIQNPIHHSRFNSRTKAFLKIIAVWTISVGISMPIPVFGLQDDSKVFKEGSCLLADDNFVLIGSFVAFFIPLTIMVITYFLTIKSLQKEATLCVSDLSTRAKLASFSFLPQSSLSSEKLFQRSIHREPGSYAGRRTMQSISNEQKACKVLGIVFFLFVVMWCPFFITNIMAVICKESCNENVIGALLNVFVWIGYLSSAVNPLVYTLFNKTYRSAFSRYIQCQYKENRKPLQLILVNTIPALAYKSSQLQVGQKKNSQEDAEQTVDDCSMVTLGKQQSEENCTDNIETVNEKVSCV
Sequence of 5-hydroxytryptamine receptor 7 (P34969 whole entry): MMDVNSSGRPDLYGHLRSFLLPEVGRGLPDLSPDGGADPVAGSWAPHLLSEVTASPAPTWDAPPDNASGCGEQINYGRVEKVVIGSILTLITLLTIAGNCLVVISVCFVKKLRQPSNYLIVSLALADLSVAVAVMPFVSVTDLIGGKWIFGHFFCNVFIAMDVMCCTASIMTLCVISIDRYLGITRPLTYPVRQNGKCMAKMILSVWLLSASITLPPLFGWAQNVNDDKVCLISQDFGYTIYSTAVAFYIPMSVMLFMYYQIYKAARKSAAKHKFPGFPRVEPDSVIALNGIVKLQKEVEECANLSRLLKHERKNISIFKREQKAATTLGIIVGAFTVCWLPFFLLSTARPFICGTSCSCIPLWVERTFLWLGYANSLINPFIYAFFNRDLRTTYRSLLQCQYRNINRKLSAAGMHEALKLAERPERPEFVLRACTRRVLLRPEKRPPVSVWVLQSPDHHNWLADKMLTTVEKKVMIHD
Sequence of Sodium-dependent serotonin transporter (P31652 whole entry): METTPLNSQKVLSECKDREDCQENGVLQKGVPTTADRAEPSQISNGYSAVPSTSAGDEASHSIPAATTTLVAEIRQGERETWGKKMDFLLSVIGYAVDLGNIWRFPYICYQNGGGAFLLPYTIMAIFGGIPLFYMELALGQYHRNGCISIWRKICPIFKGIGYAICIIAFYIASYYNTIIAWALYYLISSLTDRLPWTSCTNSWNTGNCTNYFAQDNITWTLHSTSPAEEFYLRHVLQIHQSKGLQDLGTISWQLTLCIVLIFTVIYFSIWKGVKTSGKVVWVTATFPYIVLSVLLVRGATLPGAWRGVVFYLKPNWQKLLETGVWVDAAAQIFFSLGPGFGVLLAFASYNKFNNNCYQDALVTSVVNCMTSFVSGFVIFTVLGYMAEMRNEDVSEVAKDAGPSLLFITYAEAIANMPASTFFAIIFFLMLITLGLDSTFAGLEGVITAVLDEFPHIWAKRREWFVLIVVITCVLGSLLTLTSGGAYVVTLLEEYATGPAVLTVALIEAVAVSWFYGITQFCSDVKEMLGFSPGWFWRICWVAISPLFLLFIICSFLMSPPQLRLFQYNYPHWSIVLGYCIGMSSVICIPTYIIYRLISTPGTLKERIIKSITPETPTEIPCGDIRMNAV
Sequence of D(2) dopamine receptor (P14416 whole entry): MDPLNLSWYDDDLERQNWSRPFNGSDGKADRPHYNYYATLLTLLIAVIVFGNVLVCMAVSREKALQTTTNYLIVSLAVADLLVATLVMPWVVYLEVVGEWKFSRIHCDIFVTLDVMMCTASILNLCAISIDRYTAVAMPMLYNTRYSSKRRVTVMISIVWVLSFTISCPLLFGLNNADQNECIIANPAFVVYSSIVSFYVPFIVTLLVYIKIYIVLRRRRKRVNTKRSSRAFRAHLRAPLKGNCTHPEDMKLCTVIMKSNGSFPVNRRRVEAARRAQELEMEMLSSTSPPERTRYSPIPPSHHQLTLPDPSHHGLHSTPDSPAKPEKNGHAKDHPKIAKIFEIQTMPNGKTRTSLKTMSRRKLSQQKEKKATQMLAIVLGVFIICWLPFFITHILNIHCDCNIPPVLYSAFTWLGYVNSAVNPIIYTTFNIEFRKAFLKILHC
Sequence of 5-hydroxytryptamine receptor 6 (P50406 whole entry): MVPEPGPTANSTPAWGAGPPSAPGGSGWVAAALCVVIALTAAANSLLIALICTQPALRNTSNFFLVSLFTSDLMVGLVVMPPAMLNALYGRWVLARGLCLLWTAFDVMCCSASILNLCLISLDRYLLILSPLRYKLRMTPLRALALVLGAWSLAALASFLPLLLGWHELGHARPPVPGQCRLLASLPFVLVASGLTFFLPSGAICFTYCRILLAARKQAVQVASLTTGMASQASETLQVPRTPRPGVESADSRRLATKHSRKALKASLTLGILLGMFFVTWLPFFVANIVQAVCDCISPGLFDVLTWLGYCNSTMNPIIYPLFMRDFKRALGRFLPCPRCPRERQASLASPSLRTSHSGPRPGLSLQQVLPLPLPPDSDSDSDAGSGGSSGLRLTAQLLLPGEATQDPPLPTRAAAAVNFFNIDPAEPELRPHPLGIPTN

## O=C1CC(c2c[nH]c3ccccc23)C(=O)N1CCCN1CCC(c2c[nH]c3ccc(F)cc23)CC1 (racemic)
[1]
  Ki: 122 nM
[2]
  Ki: 215 nM

## COc1ccc2[nH]cc(C3CCN(CCN4C(=O)CC(c5c[nH]c6ccccc56)C4=O)CC3)c2c1 (racemic)
[1]
  Ki: 352 nM
[2]
  Ki: 1850 nM

## O=C1CC(c2c[nH]c3ccccc23)C(=O)N1CCCN1CC=C(c2c[nH]c3ccc(Br)cc23)CC1 (racemic)
[1]
  Ki: 111 nM
[2]
  Ki: 182 nM

## COc1ccc2[nH]cc(C3CCN(CCCCN4C(=O)CC(c5c[nH]c6ccccc56)C4=O)CC3)c2c1 (racemic)
D(2) dopamine receptor
  Ki: 161 nM
[1]
  Ki: 2.2 nM
[2]
  Ki: 210 nM
[3]
  Ki: 159 nM
[4]
  Ki: 345 nM
[5]
  Ki: 498 nM

## O=C1CC(c2c[nH]c3ccccc23)C(=O)N1CCCCN1CCC(c2c[nH]c3ccc(F)cc23)CC1 (racemic)
D(2) dopamine receptor
  Ki: 14 nM
[1]
  Ki: 7.5 nM
[2]
  Ki: 505 nM
[3]
  Ki: 63 nM
[4]
  Ki: 196 nM
[5]
  Ki: 71 nM

## O=C1CC(c2c[nH]c3ccccc23)C(=O)N1CCN1CCC(c2c[nH]c3ccccc23)CC1 (racemic)
[1]
  Ki: 364 nM
[2]
  Ki: 56 nM

## COc1ccc2[nH]cc(C3=CCN(CCN4C(=O)CC(c5c[nH]c6ccccc56)C4=O)CC3)c2c1 (racemic)
[1]
  Ki: 1740 nM
[2]
  Ki: 784 nM

## O=C1CC(c2c[nH]c3ccccc23)C(=O)N1CCCN1CC=C(c2c[nH]c3ccc(Cl)cc23)CC1 (racemic)
[1]
  Ki: 285 nM
[2]
  Ki: 50.7 nM

## O=C1CC(c2c[nH]c3ccccc23)C(=O)N1CCN1CCC(c2c[nH]c3ccc(F)cc23)CC1 (racemic)
D(2) dopamine receptor
  Ki: 80 nM
[1]
  Ki: 8.1 nM
[2]
  Ki: 381 nM
[3]
  Ki: 1150 nM
[4]
  Ki: 1160 nM
[5]
  Ki: 384 nM

## COc1ccc2[nH]cc(C3=CCN(CCCN4C(=O)CC(c5c[nH]c6ccccc56)C4=O)CC3)c2c1 (racemic)
[1]
  Ki: 210 nM
[2]
  Ki: 125 nM

## O=C1CC(c2c[nH]c3ccccc23)C(=O)N1CCCCN1CC=C(c2c[nH]c3ccc(Cl)cc23)CC1 (racemic)
[1]
  Ki: 68.7 nM
[2]
  Ki: 74.4 nM

## COc1ccc2[nH]cc(C3CCN(CCCN4C(=O)CC(c5c[nH]c6ccccc56)C4=O)CC3)c2c1 (racemic)
D(2) dopamine receptor
  Ki: 343 nM
[1]
  Ki: 32.6 nM
[2]
  Ki: 221 nM
[3]
  Ki: 264 nM
[4]
  Ki: 589 nM
[5]
  Ki: 11600 nM

## COc1ccc2[nH]cc(C3=CCN(CCCCN4C(=O)CC(c5c[nH]c6ccccc56)C4=O)CC3)c2c1 (racemic)
Mus musculus [6]
  deltaT: -0.3 °C
[1]
  Ki: 3.2 nM
Mus musculus [7]
  deltaT: -1.1 °C
[2]
  Ki: 46.2 nM
Mus musculus [8]
  deltaT: -0.5 °C
Mus musculus [9]
  deltaT: -0.4 °C
Mus musculus [10]
  deltaT: -1.1 °C
Mus musculus [11]
  deltaT: -0.4 °C
Mus musculus [12]
  Activity: inactive
Mus musculus [13]
  deltaT: -0.9 °C
Mus musculus [14]
  deltaT: -0.5 °C
Mus musculus [15]
  deltaT: -0.7 °C
Mus musculus [16]
  deltaT: -1.1 °C

## O=C1CC(c2c[nH]c3ccccc23)C(=O)N1CCN1CC=C(c2c[nH]c3ccccc23)CC1 (racemic)
[1]
  Ki: 250 nM
[2]
  Ki: 33.8 nM

## CCCN(CCC)C1CCc2cccc(O)c2C1 (configuration not stated)
Mus musculus [17]
  Activity: Active

## O=C1CC(c2c[nH]c3ccccc23)C(=O)N1CCCN1CC=C(c2c[nH]c3ccc(F)cc23)CC1 (racemic)
[1]
  Ki: 106 nM
[2]
  Ki: 5.2 nM

## O=C1CC(c2c[nH]c3ccccc23)C(=O)N1CCCCN1CC=C(c2c[nH]c3ccc(Br)cc23)CC1 (racemic)
[1]
  Ki: 59.1 nM
[2]
  Ki: 208 nM

## O=C1CC(c2c[nH]c3ccccc23)C(=O)N1CCN1CC=C(c2c[nH]c3ccc(Cl)cc23)CC1 (racemic)
[1]
  Ki: 406 nM
[2]
  Ki: 96.7 nM

## O=C1CC(c2c[nH]c3ccccc23)C(=O)N1CCN1CC=C(c2c[nH]c3ccc(Br)cc23)CC1 (racemic)
[1]
  Ki: 324 nM
[2]
  Ki: 673 nM

## O=C1CC(c2c[nH]c3ccccc23)C(=O)N1CCCN1CC=C(c2c[nH]c3ccccc23)CC1 (racemic)
[1]
  Ki: 161 nM
[2]
  Ki: 4 nM

## O=C1CC(c2c[nH]c3ccccc23)C(=O)N1CCCCN1CC=C(c2c[nH]c3ccccc23)CC1 (racemic)
Mus musculus [6]
  deltaT: -1.2 °C
[1]
  Ki: 12.5 nM
Mus musculus [7]
  deltaT: -1.4 °C
[2]
  Ki: 11.3 nM
Mus musculus [8]
  deltaT: -0.6 °C
Mus musculus [9]
  deltaT: -1.2 °C
Mus musculus [10]
  deltaT: -1.5 °C
Mus musculus [11]
  deltaT: -0.9 °C
Mus musculus [13]
  deltaT: -1.4 °C
Mus musculus [14]
  deltaT: -0.7 °C
Mus musculus [15]
  deltaT: -0.9 °C
Mus musculus [16]
  deltaT: -1.5 °C

## O=C1CC(c2c[nH]c3ccccc23)C(=O)N1CCCN1CCC(c2c[nH]c3ccccc23)CC1 (racemic)
[1]
  Ki: 68.5 nM
[2]
  Ki: 354 nM

## O=C1CC(c2c[nH]c3ccccc23)C(=O)N1CCCCN1CCC(c2c[nH]c3ccccc23)CC1 (racemic)
[1]
  Ki: 15.7 nM
Mus musculus [7]
  deltaT: -2.8 °C
[2]
  Ki: 5.7 nM
Mus musculus [8]
  deltaT: -1.5 °C
Mus musculus [10]
  deltaT: -2.1 °C
Mus musculus [11]
  deltaT: -1.2 °C
Mus musculus [18]
  deltaT: -1 °C
Mus musculus [19]
  deltaT: -1.1 °C
Mus musculus [13]
  deltaT: -2.1 °C
Mus musculus [14]
  deltaT: -1.3 °C
Mus musculus [15]
  deltaT: -1.3 °C
Mus musculus [16]
  deltaT: -2.4 °C

## O=C1CC(c2c[nH]c3ccccc23)C(=O)N1CCCCN1CC=C(c2c[nH]c3ccc(F)cc23)CC1 (racemic)
Mus musculus [6]
  deltaT: -0.2 °C
[1]
  Ki: 17.6 nM
Mus musculus [7]
  deltaT: -1.5 °C
[2]
  Ki: 20 nM
Mus musculus [8]
  deltaT: -0.7 °C
Mus musculus [9]
  deltaT: -0.5 °C
Mus musculus [10]
  deltaT: -1.3 °C
Mus musculus [11]
  deltaT: -0.7 °C
Mus musculus [12]
  Activity: inactive
Mus musculus [13]
  deltaT: -1.2 °C
Mus musculus [14]
  deltaT: -0.6 °C
Mus musculus [15]
  deltaT: -0.7 °C
Mus musculus [16]
  deltaT: -1.6 °C

## O=C1CC(c2c[nH]c3ccccc23)C(=O)N1CCN1CC=C(c2c[nH]c3ccc(F)cc23)CC1 (racemic)
[1]
  Ki: 372 nM
[2]
  Ki: 68.4 nM
